Here are results for one compound from patent publication US20130237601A1, “COMPOSITION FOR THE TREATMENT AND/OR PREVENTION OF FIRE BLIGHT” (LANXESS DISTRIBUTION GMBH, priority 2006, published 2013).

Counter-ions that a name gives are not always drawn.

This experiment relates to Erwinia amylovora. The experiment is described as follows: Test for inhibitory activity against Erwinia amylovora (inhibitory zone on CYE medium plates). Format: cell-based. Particulars: after 24 hours, read-out: Inhibitory zone diameter. As to the method:
10 μl of an Erwinia amylovora suspension were plated onto CYE medium at a density of 10^8 cfu/ml. Thereafter, a hole 5 mm in diameter was punched into the center of the plates, and 20 μl of the test solution were introduced. After 24 hours, the inhibitory zone was measured. The reference substance was streptomycin sulfate, and the negative control was tap water.
The product used was an aqueous solution of the preparation according to the invention in the form of granules of formic acid and/or a salt of formic acid, in particular calcium formate, whose content in formic acid and/or a salt of formic acid, in particular calcium formate, was approximately 80% by weight. This preparation was diluted with tap water to give the concentrations stated (based on the granules).

Regarding `[H]/N=C(/N)N[C@H]1[C@H](O)[C@@H](O)[C@H](O[C@@H]2O[C@@H](C)[C@](O)(C=O)[C@H]2O[C@@H]2O[C@@H](CO)[C@H](O)[C@@H](O)[C@@H]2NC)[C@@H](N/C(N)=N\[H])[C@@H]1O` [Streptomycin sulfate, streptomycin sulfate], the zone of inhibition at 0.001 % strength (concentration 0.001% by weight) amounted to 16 mm. Moreover, the zone of inhibition at 0.01 % strength (concentration 0.01% by weight) was found to be 20 mm. The zone of inhibition at 0.1 % strength (concentration 0.1% by weight) is 24 mm.
